Results from US12415770B2, “Modulators of liver receptor homologue 1 (LRH-1) and uses” (Emory University, priority 2017, dated 2025).
Like-named read-outs stand apart in the source and are kept apart here.

Tests used:
LRH-1 = target: T1, LRH-1 (Homo sapiens, UniProt O00482); experiment: Luciferase reporter assay (SHP-luc) in HeLa cells transfected with full-length LRH-1; type: cell-based; details: for EC50 / EC50 (μM): HeLa cells, SHP-luc reporter, 24 hours, 0.03-30 μM; for Relative Efficacy: fold increase over baseline (DMSO-treated cells) relative to the fold increase induced by RJW100
T1 construct: The transfected plasmids included full-length LRH-1 in a pCI vector; expressed in transfected cells; host or cells: HeLa
T1 sequence (O00482 whole entry): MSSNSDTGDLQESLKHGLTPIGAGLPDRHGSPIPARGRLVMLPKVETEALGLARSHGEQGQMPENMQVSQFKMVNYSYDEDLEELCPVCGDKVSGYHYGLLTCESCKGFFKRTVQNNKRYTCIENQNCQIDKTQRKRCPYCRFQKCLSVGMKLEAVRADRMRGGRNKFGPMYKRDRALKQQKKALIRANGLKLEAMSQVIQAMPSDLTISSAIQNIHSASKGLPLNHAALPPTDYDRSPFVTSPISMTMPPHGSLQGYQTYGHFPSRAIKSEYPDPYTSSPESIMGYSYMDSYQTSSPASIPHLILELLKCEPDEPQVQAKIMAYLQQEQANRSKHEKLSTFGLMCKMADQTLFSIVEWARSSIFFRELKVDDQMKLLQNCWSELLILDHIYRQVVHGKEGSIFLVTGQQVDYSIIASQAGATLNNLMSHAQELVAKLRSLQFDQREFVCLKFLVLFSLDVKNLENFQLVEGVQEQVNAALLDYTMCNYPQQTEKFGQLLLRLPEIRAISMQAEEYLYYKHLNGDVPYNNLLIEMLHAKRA
Experimental: EC50 and Relative Activity values were calculated from luciferase reporter assays.

LRH-1 LBD = target: T2, LRH-1 LBD (Homo sapiens, UniProt O00482); experiment: Thermofluor (DSF) assay, purified LRH-1 LBD-His protein; type: binding; details: for ΔTm at 50 µM: read-out: ΔTm (mean +/− SEM) (° C.)
T2 construct: LRH-1 LBD (residues 299-541) in the pMSC7 vector was expressed in BL21 (DE3) pLysS E. coli; made in house; host or cells: E. coli BL21 (DE3) pLysS
T2 sequence (O00482 299-541): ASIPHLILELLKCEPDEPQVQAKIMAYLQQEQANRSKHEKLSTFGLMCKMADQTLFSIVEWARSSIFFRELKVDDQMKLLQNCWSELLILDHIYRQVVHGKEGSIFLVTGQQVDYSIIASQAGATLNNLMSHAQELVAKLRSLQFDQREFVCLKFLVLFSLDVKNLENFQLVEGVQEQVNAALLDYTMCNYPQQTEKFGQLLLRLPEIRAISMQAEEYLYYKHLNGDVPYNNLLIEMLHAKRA
Experimental: Thermofluor assays—Purified LRH-1 LBD-His protein (0.2 mg/ml) was incubated overnight with 50 μM of each compound at 4° C. The final DMSO concentration in the reactions was 1%. SYPRO orange dye (Invitrogen) was then added at a 1:1000 dilution. Reactions were heated at a rate of 0.5° C. per minute, using a StepOne Plus Real Time PCR System (ThermoFisher). […] Data were analyzed by first subtracting baseline fluorescence (ligands+SYPRO with no protein) and then fitting the curves using the Bolzman equation (GraphPad Prism, v6) to determine the Tm. […]

[1] = 50 μM compound, relative to DLPC-bound LRH-1

| Structure (SMILES) | EC50 (LRH-1) [µM] | Relative Efficacy (LRH-1) | ΔTm at 50 µM (LRH-1 LBD; [1]) [°C] | EC50 (μM) (LRH-1) | ΔTm (mean +/− SEM) (° C.) (LRH-1 LBD; [1]) | ΔTm at 50 µM (LRH-1 LBD) [°C] | ΔTm (mean +/− SEM) (° C.) (LRH-1 LBD; 50 μM compound, relative to DLPC-bound LRH-1, 50 µM) |
| --- | --- | --- | --- | --- | --- | --- | --- |
| C=C(c1ccccc1)C12CCC(O)C1CC(CCCCCCCCCCCO)=C2c1ccccc1 (stereo not drawn) [Compound 12e, Exo-5-(11-hydroxyundecyl)-4-phenyl-3a-(1-phenylvinyl)-1,2,3,3a,6,6a-hexahydropentalen-1-ol] | 2 | 0.87 | 4.7 | – | – | – | – |
| C=C(c1ccccc1)[C@@]12CC[C@@H](O)[C@@H]1CC(CCCCCCCCCCOP(=O)([O-])OCC[N+](C)(C)C)=C2c1ccccc1 (relative stereo) [Compound 11g, 10-(6-exo-hydroxy-3-phenyl-3 a-(1-phenylvinyl)-1,3a,4,5,6,6a-hexahydropentalen-2-yl)decyl (2-(trimethylammonio)ethyl) phosphate] | 5 | 2.48 | -2.4 | – | – | – | – |
| C=C(c1ccccc1)C12CCC(O)C1CC(CCCCCCCOP(=O)([O-])OCC[N+](C)(C)C)=C2c1ccccc1 (stereo not drawn) [Compound 8g, 7-(6-exo-hydroxy-3-phenyl-3a-(1-phenylvinyl)-1,3a,4,5,6,6a-hexahydropentalen-2-yl)heptyl (2-(trimethylammonio)ethyl) phosphate] | – | 0.81 | 2.9 | cnc | – | – | – |
| C=C(c1ccccc1)C12CC[C@@H](O)C1CC(CCCCCC)=C2c1cccc(O)c1 (mixture of isomers) [Compound 15f, (Exo)-5-hexyl-4-(3-hydroxyphenyl)-3a-(1-phenylvinyl)-1,2,3,3a,6,6a-hexahydropentalen-1-ol] | – | 0.85 | 1.4 | cnc | – | – | – |
| C=C(c1ccccc1)[C@@]12CC[C@@H](O)[C@@H]1CC(CCCCCC(=O)O)=C2c1ccccc1 (relative stereo) [Compound 7f, 6-(6-exo-hydroxy-3-phenyl-3a-(1-phenylvinyl)-1,3a,4,5,6,6a-hexahydropentalen-2-yl)hexanoic acid] | 9 | 2.22 | 5.5 | – | – | – | – |
| C=C(c1ccccc1)C12CCC(C#N)C1CC(CCCCCC)=C2c1ccccc1 (stereo not drawn) [Compound 32-endo, (Endo or Exo)-5-hexyl-4-phenyl-3a-(1-phenylvinyl)-1,2,3,3a,6,6a-hexahydropentalene-1-carbonitrile] | – | 0 | – | – | ns (Ns = Tm changes were less than 1° C.) | – | – |
| C=C(c1ccccc1)[C@@]12CC[C@@H](OS(C)(=O)=O)C1CC(CCCCCC)=C2c1ccccc1 (stereo partly drawn) [Compound 30-exo, (Endo or Exo) 5-hexyl-4-phenyl-3a-(1-phenylvinyl)-1,2,3,3a,6,6a-hexahydropentalen-1-yl methanesulfonate] | 1 | 0.14 | 1.1 | – | – | – | – |
| C=C(c1ccccc1)C12CCC(O)C1CC(CCCCCCCCCO)=C2c1ccccc1 (stereo not drawn) [Compound 10e, Exo-5-(9-hydroxynonyl)-4-phenyl-3a-(1-phenylvinyl)-1,2,3,3a,6,6a-hexahydropentalen-1-ol] | 1 | 1.30 | 4.1 | – | – | – | – |
| C=C(c1ccccc1)C12CCC(O)C1CC(CCCCCCCCOP(=O)([O-])OCC[N+](C)(C)C)=C2c1ccccc1 (stereo not drawn) [Compound 9g, 8-(6-exo-hydroxy-3-phenyl-3a-(1-phenylvinyl)-1,3a,4,5,6,6a-hexahydropentalen-2-yl)octyl (2-(trimethylammonio)ethyl) phosphate] | > 30 | 1.12 | 5.6 | – | – | – | – |
| C=C(c1ccccc1)C12CCC(O)C1CC(CCCCCOP(=O)([O-])OCC[N+](C)(C)C)=C2c1ccccc1 (stereo not drawn) [Compound 6g, 5-(6-exo-hydroxy-3-phenyl-3a-(1-phenylvinyl)-1,3a,4,5,6,6a-hexahydropentalen-2-yl)pentyl (2-(trimethylammonio)ethyl) phosphate] | – | 0.00 | < 1 | cnc | – | – | – |
| C=C(c1ccccc1)[C@@]12CC[C@@H](O)[C@@H]1CC(CCCCCCCCC(=O)O)=C2c1ccccc1 (relative stereo) [Compound 10f, 9-(6-exo-hydroxy-3-phenyl-3a-(1-phenylvinyl)-1,3a,4,5,6,6a-hexahydropentalen-2-yl)nonanoic acid] | 1.8 | 3.39 | 3 | – | – | – | – |
| C=C(c1ccccc1)[C@@]12CC[C@@H](OC(N)=O)C1CC(CCCCCC)=C2c1ccccc1 (stereo partly drawn) [Compound 29-exo, (Endo or Exo)-5-hexyl-4-phenyl-3a-(1-phenylvinyl)-1,2,3,3a,6,6a-hexahydropentalen-1-yl carbamate] | – | 0.14 | 1.54 | cnc | – | – | – |
| C=C(c1ccc(O)cc1)[C@@]12CC[C@@H](O)C1CC(CCCCCC)=C2c1ccccc1 (mixture of isomers) [Compound 23b, (Exo)-5-hexyl-3a-(1-(4-hydroxyphenyl)vinyl)-4-phenyl-1,2,3,3a,6,6a-hexahydropentalen-1-ol] | 5 | 0.86 | < 1 | – | – | – | – |
| C=C(c1ccccc1)[C@@]12CC[C@@H](O)C1CC(CCCCCC)=C2c1cc(N)ccc1F (mixture of isomers) [Compound 16g, (Exo)-4-(5-amino-2-fluorophenyl)-5-hexyl-3a-(1-phenylvinyl)-1,2,3,3a,6,6a-hexahydropentalen-1-ol] | 24 | 3.8 | < 1 | – | – | – | – |
| C=C(c1ccccc1)[C@@]12CCC(O)C1CC(CCCCCCCCOP(=O)(OCC)OCC)=C2c1ccccc1 (stereo partly drawn) [Compound 53-endo, (Endo or Exo) diethyl (8-(6-hydroxy-3-phenyl-3a-(1-phenylvinyl)-1,3a,4,5,6,6a-hexahydropentalen-2-yl)octyl)phosphate] | – | 1.04 | – | – | – | < 1 | – |
| C=C(c1ccccc1)[C@@]12CC[C@@H](O)C1CC(CCCCCC)=C2c1cc(O)cc(F)c1 (mixture of isomers) [Compound 18f, (Exo)-4-(3-fluoro-5-hydroxyphenyl)-5-hexyl-3a-(1-phenylvinyl)-1,2,3,3a,6,6a-hexahydropentalen-1-ol] | > 30 | 2.8 | < 1 | – | – | – | – |
| C=C(c1ccccc1)[C@@]12CC[C@@H](O)[C@@H]1CC(CCCCCCC(=O)O)=C2c1ccccc1 (relative stereo) [Compound 8f, 7-(6-exo-hydroxy-3-phenyl-3a-(1-phenylvinyl)-1,3a,4,5,6,6a-hexahydropentalen-2-yl)heptanoic acid] | 4 | 1.17 | 3.7 | – | – | – | – |
| C=C(c1ccccc1)[C@@]12CCC(O)C1CC(CCCCCCCCOP(=O)(OCC)OCC)=C2c1ccccc1 (stereo partly drawn) [Compound 53-exo, (Endo or Exo) diethyl (8-(6-hydroxy-3-phenyl-3a-(1-phenylvinyl)-1,3a,4,5,6,6a-hexahydropentalen-2-yl)octyl)phosphate] | – | 0.37 | – | – | ns (Ns = Tm changes were less than 1° C.) | – | – |
| C=C(c1ccccc1)[C@@]12CC[C@@H](O)C1CC(CCCCCCCCOC(C)=O)=C2c1ccccc1 (stereo partly drawn) [Compound 47-endo, (Exo or Endo) 8-(6-hydroxy-3-phenyl-3a-(1-phenylvinyl)-1,3a,4,5,6,6a-hexahydropentalen-2-yl)octyl acetate] | – | 1.48 | – | – | – | – | ns (Ns = Tm changes were less than 1° C.) |
| C=C(c1ccccc1)C12CCC(O)C1CC(CCCCCCCCCCO)=C2c1ccccc1 (stereo not drawn) [Compound 11e, Exo-5-(10-hydroxydecyl)-4-phenyl-3a-(1-phenylvinyl)-1,2,3,3a,6,6a-hexahydropentalen-1-ol] | 2 | 2.83 | < 1 | – | – | – | – |
| C=C(c1ccccc1)[C@@]12CC[C@@H](NC(C)=O)C1CC(CCCCCC)=C2c1ccccc1 (stereo partly drawn) [Compound 35-exo, N-((endo or exo)-5-hexyl-4-phenyl-3a-(1-phenylvinyl)-1,2,3,3a,6,6a-hexahydropentalen-1-yl) acetamide] | 17 | – | -1.1 | – | – | – | – |
| C=C(c1ccccc1)C12CCC(O)C1CC(CCCC(=O)O)=C2c1ccccc1 (stereo not drawn) [Compound 5f, 4-(6-exo-hydroxy-3-phenyl-3a-(1-phenylvinyl)-1,3a,4,5,6,6a-hexahydropentalen-2-yl)butanoic acid] | – | 1.43 | 2.3 | cnc | – | – | – |
| C=C(c1ccccc1)C12CCC(O)C1CC(CCCCOP(=O)([O-])OCC[N+](C)(C)C)=C2c1ccccc1 (stereo not drawn) [Compound 5g, 4-(6-exo-hydroxy-3-phenyl-3a-(1-phenylvinyl)-1,3a,4,5,6,6a-hexahydropentalen-2-yl)butyl (2-(trimethylammonio)ethyl) phosphate] | – | 0.33 | < 1 | cnc | – | – | – |
| C=C(c1ccccc1)C12CCC(N)C1CC(CCCCCC)=C2c1ccccc1 (stereo not drawn) [Compound 33-endo, (Endo or Exo)-5-hexyl-4-phenyl-3a-(1-phenylvinyl)-1,2,3,3a, 6,6a-hexahydropentalen-1-amine] | – | 0.56 | – | – | ns (Ns = Tm changes were less than 1° C.) | – | – |
